Test results from patent US20240308968A1, “FUNGICIDAL SUBSTITUTED HETEROCYCLES” (FMC Corporation, priority 2021, published 2024).

Key:
[1] = test system: Blumeria graminis f. sp. Tritici; test: Test C: preventive spray on wheat seedlings, wheat powdery mildew disease rating; format: in vivo; settings: 50 ppm, 100 = 100% disease control, 0 = no control; for pest or weed control at 50 ppm: Blumeria graminis, 192 h
Summary of the method: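 Wheat seedlings sprayed to run-off with test suspension (acetone 3% dissolution, then acetone/water 50/50 with 50–250 ppm PEG400), inoculated next day with Blumeria graminis spore dust. Held 8 days at 20° C in growth chamber, then visually rated (100 = full control, 0 = none, relative to controls).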

Zymoseptoria tritici = test: Test A: preventive spray on wheat seedlings, wheat leaf blotch disease rating; format: in vivo; settings: 50 ppm, 100 = 100% disease control, 0 = no control; for pest or weed control at 50 ppm: Zymoseptoria tritici, 456 h
Summary of the method: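 Compounds in acetone/water (50/50) with 50–250 ppm PEG400, sprayed to run-off on wheat seedlings. Inoculated next day with Z. tritici spores, 48 h saturated atmosphere at 24 °C, then 17 days at 20 °C before disease rating.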

Alternaria solani = test: Test F: preventive spray on tomato seedlings, tomato early blight disease rating; format: in vivo; settings: 50 ppm, 100 = 100% disease control, 0 = no control; for pest or weed control at 50 ppm: Alternaria solani, 120 h
Summary of the method: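 Tomato seedlings were sprayed to run-off with compound suspensions in ppm (acetone/water with PEG400 surfactant) and inoculated with Alternaria solani spores the next day. Plants were held 48 h saturated at 27 °C, then 3 days at 20 °C. Disease was rated visually, with 100 as full control and 0 as none, relative to controls.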

[2] = test system: Puccinia recondita f. sp. Tritici; test: Test B: preventive spray on wheat seedlings, wheat leaf rust disease rating; format: in vivo; settings: 50 ppm, 100 = 100% disease control, 0 = no control; for pest or weed control at 50 ppm: Puccinia recondita, 192 h
Summary of the method: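 Compounds in acetone/water (50/50) with 50-250 ppm PEG400 sprayed to run-off on wheat seedlings; inoculated with P. recondita spores next day. Held 24 h saturated at 20° C., then 7 days in growth chamber at 20° C. before rating; 100 = full control, 0 = none versus controls.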

Phakopsora pachyrhizi = test: Test D: preventive spray on soybean seedlings, Asian soybean rust disease rating; format: in vivo; settings: 50 ppm, 100 = 100% disease control, 0 = no control; for pest or weed control at 50 ppm: Phakopsora pachyrhizi, 216 h
Summary of the method: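 Compounds in acetone/water (50/50) with 50–250 ppm PEG400 sprayed to run-off on soybean seedlings; inoculated next day with P. pachyrhizi spores, held 24 h saturated at 22° C, then 8 days at 22° C before visual disease rating.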

Botrytis cinerea = test: Test E: preventive spray on tomato seedlings, tomato Botrytis disease rating; format: in vivo; settings: 50 ppm, 100 = 100% disease control, 0 = no control; for pest or weed control at 50 ppm: Botrytis cinerea, 120 h
Summary of the method: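 Tomato seedlings sprayed to run-off with compound suspended in acetone/water with PEG400 surfactant, then inoculated next day with Botrytis cinerea spores. Held 48 h saturated at 20 °C, then 3 days at 24 °C; disease rated visually, 0 to 100% control relative to controls.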

SMILES	pest or weed control at 50 ppm [1]	pest or weed control at 50 ppm (Zymoseptoria tritici)	pest or weed control at 50 ppm (Alternaria solani)	pest or weed control at 50 ppm [2]	pest or weed control at 50 ppm (Phakopsora pachyrhizi)	melting point	pest or weed control at 50 ppm (Botrytis cinerea)	Test C disease control rating [1]	Test A disease control rating (Zymoseptoria tritici)	Test F disease control rating (Alternaria solani)	Test B disease control rating [2]	Test D disease control rating (Phakopsora pachyrhizi)	Test E disease control rating (Botrytis cinerea)
COc1cc(OC)cc(-n2nc(C)c(=O)c(C)c2-c2ccc(F)cc2F)c1 [Compound 29, 6-(2,4-difluorophenyl)-1-(3,5-dimethoxyphenyl)-3,5-dimethyl-4(1H)-pyridazinone]	100%	100%	100%	100%	99%	124 to 127 °C	98%	–	–	–	–	–	–
COc1cc(OC)c(Cl)c(-c2noc(=O)c(C)c2-c2ccc(F)cc2Cl)c1 [Compound 64, 3-(2-chloro-3,5-dimethoxyphenyl)-4-(2-chloro-4-fluorophenyl)-5-methyl-6H-1,2-oxazin-6-one]	98%	97%	99%	100%	99%	161 to 164 °C	91%	–	–	–	–	–	–
COc1cc(OC)cc(-c2cc(C#N)c(=O)n(C)c2-c2c(F)cc(F)cc2F)c1 [Compound 67, 1,2-dihydro-5-(3,5-dimethoxyphenyl)-1-methyl-2-oxo-6-(2,4,6-trifluorophenyl)-3-pyridinecarbonitrile]	84%	100%	98%	100%	92%	180 to 183 °C	98%	–	–	–	–	–	–
COc1cc(OC)c(Cl)c(-c2cc(C#N)c(=O)n(C)c2-c2c(F)cc(F)cc2F)c1 [Compound 68, 5-(2-chloro-3,5-dimethoxyphenyl)-1,2-dihydro-1-methyl-2-oxo-6-(2,4,6-trifluorophenyl)-3-pyridinecarbonitrile]	99%	100%	99%	100%	100%	159 to 162 °C	93%	–	–	–	–	–	–
CCn1c(-c2c(F)cc(F)cc2F)c(-c2cc(OC)cc(OC)c2)cc(C#N)c1=O [Compound 69, 1,2-dihydro-5-(3,5-dimethoxyphenyl)-1-ethyl-2-oxo-6-(2,4,6-trifluorophenyl)-3-pyridinecarbonitrile]	99%	100%	99%	100%	86%	185 to 187 °C	93%	–	–	–	–	–	–
CCn1c(-c2c(F)cc(F)cc2F)c(-c2cc(OC)cc(OC)c2Cl)cc(C#N)c1=O [Compound 70, 5-(2-chloro-3,5-dimethoxyphenyl)-1,2-dihydro-1-ethyl-2-oxo-6-(2,4,6-trifluorophenyl)-3-pyridinecarbonitrile]	99%	100%	98%	100%	100%	171 to 173 °C	96%	–	–	–	–	–	–
COc1ccc(Cl)c(-c2cc(C)nc(C)c2-c2ccc(F)cc2Cl)c1 [Compound 138, 3-(2-chloro-4-fluorophenyl)-4-(2-chloro-5-methoxyphenyl)-2,6-dimethylpyridine]	–	–	–	–	–	106 to 108 °C	–	–	–	–	–	–	–
COc1cc(OC)cc(-c2cc(C#N)c(=O)n(C)c2-c2ccc(F)cc2Cl)c1 [Compound 158]	–	–	–	–	–	–	–	0%	0%	0%	68%	0%	40%
CCn1c(-c2ccc(F)cc2Cl)c(-c2cc(OC)ccc2Cl)cc(C#N)c1=O [Compound 159]	–	–	–	–	–	–	–	27%	100%	94%	100%	77%	99%
